Where a name gives a salt, the structure may show the parent alone. One block for each molecule: values may come before it.
Assays:
SK-OV-3 cells = test: SK-OV-3 cell growth inhibition test (MTT assay); type: cell-based, human; conditions: growth inhibition at 667 nM, 69 h
Method: SK-OV-3 Cell Growth Inhibition Test (MTT Assay)
Cell strains: SK-OV-3 (human ovarian cancer cell strains); MTT; antitumor compounds; DMSO.
(§1) II. Reagents and Consumable Materials
Culture medium: 90% McCoy's 5A+10% FBS; Pancreatin (0.25% (w/v) solution was formulated with PBS, 0.53 mM of EDTA was added in the formulation); PBS; 96-well culture plate.
(§2) 1. A plate (10 cm) of cells in logarithmic growth phase that were normally cultured was collected;
(§3) 2. The culture solution was sucked out. The plate was washed with 5 mL of PBS once or twice;
(§4) 3. PBS was sucked out. 1.5 mL of 0.25% pancreatin was added to infiltrate the cells;
4. The pancreatin was sucked out. The culture plate was placed in an incubator. Digestion was carried out for about 5 min at 37° C.;
(§5) 5. 4.5 mL of complete culture solution was added to the culture plate to stop the digestion. The cells were carefully scoured with micropipette (1 ml) to give a uniform cell suspension. The suspension was implanted into a 96-well cell culture disc by 4000 cells/100 μL per well. The culture plate was incubated overnight under 5% CO2 at 37° C. In day 2, 100 μL of culture solution comprising a compound was added in each well. The plate was further incubated for 69 h under 5% CO2 at 37° C.;
(§6) 6. The culture solution was sucked out;
(§7) 7. 100 μL of serum-free culture solution containing 0.5 mg/mL MTT was added in each well. The plate was incubated for 3 h;
(§8) 8. The culture solution was carefully sucked out;
(§9) 9. 100 μL of DMSO was added in each well and vibrated to dissolve;
(§10) 10. OD values were determined at 490 nM.
(§11) IV. Results and Treatments
(§12) 1. Calculation of Relative Inhibition Ratio The inhibition ratio of a compound on cell growth=(PC−n)/(PC−NC)×100%
(§13) PC: OD values of cells after normal growth in control wells without a compound;
(§14) n: OD values of cells after growth in test wells with a compound;
(§15) NC: Background OD values of blank wells without a compound and cells.

BxPc-3 cells = test: BxPc-3 cell growth inhibition test (MTT assay); type: cell-based, human; conditions: growth inhibition at 2000 nM, 70 h
Method: BxPc-3 Cell Growth Inhibition Test (MTT Assay)
Cell strains: BxPC-3 (human pancreatic cancer cell strains); MTT; antitumor compounds; DMSO.
as §1
(§16) Culture medium: 90% RPMI-1640+10% FBS; Pancreatin (0.25% (w/v) solution was formulated with PBS, 0.53 mM of EDTA was added in the formulation); PBS; 96-well culture plate.
as §2, §3, §4
4. The culture plate was placed in an incubator. Digestion was carried out for about 8 min at 37° C.;
as §5, with “5000” for “4000”, “70” for “69”
as §6, §7, §8
(§17) 9. 100 μL of DMSO was added into each well and vibrated to dissolve;
as §10, §11, §12, §13, §14, §15

NCI-H446 cells = test: NCI-H446 cell growth inhibition test (MTT assay); type: cell-based, human; conditions: growth inhibition at 222 nM, 70 h
Method: NCI-H446 Cell Growth Inhibition Test (MTT Assay)
Cell strains: NCI-H446 (human small cell lung cancer cell strains); MTT; antitumor compounds; DMSO.
as §1, §16, §2, §3, §4
4. The culture plate was placed in an incubator. Digestion was carried out for about 3 min at 37° C.;
as §5, with “3” for “4.5”, “70” for “69”
as §6, §7, §8, §17, §10, §11, §12, §13, §14, §15

MDA-MB-453 cells = test: MDA-MB-453 cell growth inhibition test (SRB assay); type: cell-based, human; conditions: growth inhibition at 2000 nM, 69.5 h
Method: MDA-MB-453 Cell Growth Inhibition Test (SRB Assay)
Cell strains: MDA-MB-453 (human breast cancer cell strains); SRB: 0.4% (w/v) working solution was formulated with 1% glacial acetic acid, reserved at 4° C.; antitumor compounds; DMSO.
as §1
Culture medium: 90% L15+10% FBS; pancreatin (0.25% (w/v) solution was formulated with PBS, 0.53 mM of EDTA was added in the formulation); PBS; 96-well culture plate.
as §2, §3
(§18) 3. 1.5 mL of 0.25% pancreatin was added to the plate to infiltrate the cells;
(§19) 4. The pancreatin was sucked out. The culture plate was placed in an incubator. Digestion was carried out for about 3 min at 37° C.;
as §5, with “4” for “4.5”, “uniform single” for “uniform”, “plate” for “disc”, “7000” for “4000”, “well.” for “well. The plate was further incubated for 69 h under 5% CO2 at 37° C.;”
The plate was further incubated for 69.5 h under 5% CO2 at 37° C.;
(§20) 6. The culture solution was sucked out. 100 uL of TCA fixed cells which were diluted to 10% were added to each well. The plate was kept in a refrigerator for 1 h at 4° C.
(§21) 7. TCA stationary liquid was sucked out. Each well was washed with 150 μL of ddH2O five times;
(§22) 8. After the stationary liquid was cleansed, the plate was dried in the air at the room temperature;
(§23) 9. 60 μL of SRB staining solution was added in each well. The well was stained for 15 min at the room temperature;
(§24) 10. The SRB staining solution was sucked out. Each well was washed with 150 μL of 1% glacial acetic acid five times;
(§25) 11. After the SRB staining solution was cleansed, the plate was dried in the air at the room temperature;
(§26) 12. 100 μL of 10 mM Tris was added in each well. The plate was vibrated to dissolve out SRB;
(§27) 13. OD values were determined at 570 nM.
as §11, §12, §13, §14, §15

22Rv1 cells = test: 22Rv1 cell growth inhibition test (SRB assay); type: cell-based, human; conditions: growth inhibition at 222 nM, 73 h
Method: 22Rv1 Cell Growth Inhibition Test (SRB Assay)
Cell strains: 22Rv1 (human prostate cancer cell strains); SRB: 0.4% (w/v) working solution was formulated with 1% glacial acetic acid, reserved at 4° C.; antitumor compounds; DMSO.
as §1, §16, §2, §3, §18, §19
as §5, with “4” for “4.5”, “uniform single” for “uniform”, “plate” for “disc”, “7000” for “4000”, “73” for “69”
as §20, §21, §22, §23, §24, §25, §26, §27, §11, §12, §13, §14, §15

[1] = Solubility of the compound in water; type: physicochemical
A375 cells = test: A375 cell growth inhibition test (MTT assay); type: cell-based, human; conditions: 72 h
Method: A375 Cell Growth Inhibition Test (MTT Assay)
as §1
Culture medium: 90% DMEM+10% FBS (fetal calf serum); Pancreatin (0.25% (w/v) solution was formulated with PBS, 0.53 mM of EDTA was added in the formulation); PBS; 96-well culture plate.
as §2, §3
(§28) 3. PBS was sucked out. 1.5 mL of 0.25% pancreatin was added to the plate to infiltrate the cells for 1 min;
(§29) 4. The culture plate was placed in an incubator. Digestion was carried out for about 5 min at 37° C.;
as §5, with “3” for “4.5”, “3000” for “4000”, “72” for “69”
as §6, §7, §8, §9, §10, §11, §12, §13, §14, §15

A431 cells = test: A431 cell growth inhibition test (MTT assay); type: cell-based, human; conditions: 72 h
Method: A431 Cell Growth Inhibition Test (MTT Assay)
as §1
Culture medium: 45% DMEM+45% F12+10% FBS (fetal calf serum); Pancreatin (0.25% (w/v) solution was formulated with PBS, 0.53 mM of EDTA was added in the formulation); PBS; 96-well culture plate.
as §2, §3, §28, §29
as §5, with “3” for “4.5”, “mL)” for “ml)”, “2500” for “4000”, “72” for “69”
as §6, §7, §8, §9, §10, §11, §12, §13, §14, §15

- solubility of the compound in water [1]: more than 10.6 mg/ml
SMILES: CC(=O)O.COc1cccc2c1C(=O)c1c(O)c3c(c(O)c1C2=O)CC(O)(C(=O)COC(=O)CCC(=O)N1CCN(CCO)CC1)CC3O[C@H]1C[C@H](n2cccc2)[C@H](O)[C@H](C)O1 (stereo partly drawn) [Example 77, 10-((3′-(pyrrol-1-yl)-2′,3′,6′-trideoxy-alphal-l-lyxo-hexylpyranyl)oxy)-7,8,9,10-tetrahydro-6,8,11-trihydroxy-13-oxo-14-(4-((4-(2-hydroxy)ethyl)piperazin-1-yl)-4-oxo-butyrato)-1-methoxy-5,12-naphthalenedione acetate]
- Inhibition Ratio (%) (SK-OV-3 cells): 60.4%
- Inhibition Ratio (%) (BxPc-3 cells): 83.3%
- Inhibition Ratio (%) (NCI-H446 cells): 59.1%
- Inhibition Ratio (%) (MDA-MB-453 cells): 79.7%
- Inhibition Ratio (%) (22Rv1 cells): 57.9%

- IC50 (A375 cells): 28 nM
- IC50 (A431 cells): 45 nM
SMILES: COc1cccc2c1C(=O)c1c(O)c3c(c(O)c1C2=O)CC(O)(C(=O)COC(=O)CCCC(=O)NCCN1CCOCC1)CC3OC1CC(n2cccc2)C(O)C(C)O1 (stereo not shown) [Example 97]

SMILES: COc1cccc2c1C(=O)c1c(O)c3c(c(O)c1C2=O)CC(O)(C(=O)COC(=O)CCC(=O)NCCOCCN(C)C)CC3OC1CC(n2cccc2)C(O)C(C)O1 (stereo not shown) [Example 6]
- IC50 (A375 cells): 67 nM

- solubility of the compound in water [1]: more than 16 mg/ml
SMILES: CC(=O)O.COc1cccc2c1C(=O)c1c(O)c3c(c(O)c1C2=O)CC(O)(C(=O)COC(=O)CCC(=O)N1CCN(CCCN(C)C)CC1)CC3O[C@H]1C[C@H](n2cccc2)[C@H](O)[C@H](C)O1 (stereo partly drawn) [Example 87, 10-((3′-(pyrrol-1-yl)-2′,3′,6′-trideoxy-alphal-l-lyxo-hexylpyranyl)oxy)-7,8,9,10-tetrahydro-6,8,11-trihydroxy-13-oxo-14-(4-(4-(3-(dimethylamino)propyl)piperazin-1-yl)-4-oxo-butyrato)-1-methoxy-5,12-naphthalenedione acetate]

SMILES: COc1cccc2c1C(=O)c1c(O)c3c(c(O)c1C2=O)CC(O)(C(=O)COC(=O)CCC(=O)NCCN1CCOCC1)CC3O[C@H]1C[C@H](n2cccc2)[C@H](O)[C@H](C)O1 (stereo partly drawn) [Example 99, 10-((3′-(pyrrol-1-yl)-2′,3′,6′-trideoxy-alphal-l-lyxo-hexylpyranyl)oxy)-7,8,9,10-tetrahydro-6,8,11-trihydroxy-13-oxo-14-(4-((2-(morpholin-1-yl)ethyl)amino)-4-oxo-butyrato)-1-methoxy-5,12-naphthalenedione hydrochloride]
- IC50 (A375 cells; hydrochloride): 35 nM

- solubility of the compound in water [1]: more than 11 mg/ml
SMILES: CC(=O)O.CCN1CCN(C(=O)CCC(=O)OCC(=O)C2(O)Cc3c(O)c4c(c(O)c3C(O[C@H]3C[C@H](n5cccc5)[C@H](O)[C@H](C)O3)C2)C(=O)c2c(OC)cccc2C4=O)CC1 (stereo partly drawn) [Example 80, 10-((3′-(pyrrol-1-yl)-2′,3′,6′-trideoxy-alphal-l-lyxo-hexylpyranyl)oxy)-7,8,9,10-tetrahydro-6,8,11-trihydroxy-13-oxo-14-(4-(4-ethylpiperazin-1-yl)-4-oxo-butyrato)-1-methoxy-5,12-naphthalenedione acetate]

- solubility of the compound in water [1]: more than 9 mg/ml
SMILES: CC(=O)O.COc1cccc2c1C(=O)c1c(O)c3c(c(O)c1C2=O)CC(O)(C(=O)COC(=O)CCC(=O)NCCOCCN(C)C)CC3O[C@H]1C[C@H](n2cccc2)[C@H](O)[C@H](C)O1 (stereo partly drawn) [Example 76, 10-((3′-(pyrrol-1-yl)-2′,3′,6′-trideoxy-alphal-l-lyxo-hexylpyranyl)oxy)-7,8,9,10-tetrahydro-6,8,11-trihydroxy-13-oxo-14-(4-(2-(2-(dimethylamino)ethoxy)ethylamino)-4-oxo-butyrato)-1-methoxy-5,12-naphthalenedione acetate]
- Inhibition Ratio (%) (SK-OV-3 cells): 46.4%
- Inhibition Ratio (%) (BxPc-3 cells): 77.1%
- Inhibition Ratio (%) (NCI-H446 cells): 46%
- Inhibition Ratio (%) (MDA-MB-453 cells): 62.7%
- Inhibition Ratio (%) (22Rv1 cells): 49.2%

- solubility of the compound in water [1]: more than 12 mg/ml
SMILES: CC(=O)O.COc1cccc2c1C(=O)c1c(O)c3c(c(O)c1C2=O)CC(O)(C(=O)COC(=O)CCC(=O)NCCc1ccccn1)CC3O[C@H]1C[C@H](n2cccc2)[C@H](O)[C@H](C)O1 (stereo partly shown) [Example 84]
